Measurements from US20020198208A1, “MEDICINAL PREPARATION AND PROCESS FOR MANUFACTURING THEREOF” (priority 2000, published 2002).
Read-outs that look alike come from different tables or passages of the source.

What was measured:
[1] = Clinical course of Patient I. (prostatic adenoma); type: in vivo, human
Method: Patient one.
Was hospitalized with complaints of difficult urination and urges to urinate.
Diagnosis: stage 1I prostatic adenoma.
Two courses of therapy with […] sodium salt dihydrate were performed by injections for 20 and 15 injections, respectively, with a 30-day interval between the injections. Doses of the preparation were from 100 to 500 mg in 1-5 ml of distilled water correspondingly.

[2] = prior-art preparations, powder; cited from earlier work
[3] = cited from earlier work
macrophages [4] = conditions: cited from earlier work
[5] = Patient G.
Method: Patient two.
Was hospitalized with diagnosis of erysipelas of the left forearm, edema, and exacerbation of psoriasis (temperature at hospitalization was 39.9° C.).
Tameril was injected daily in a single dose of 200 mg in 2 ml water.

[6] = Patient S., after therapy (300 mg injection 5 days, then 100 mg perorally 2 times a day)
[7] = Patient S., after therapy (300 mg injection 5 days, then 100 mg perorally 2 times a day); remark: listed apart in the source
[8] = Patient S.
macrophages [9] = conditions: patients with impaired cellular immunity
macrophages [10] = conditions: inflammatory diseases
[11] = doses 20-1500 mg
[12] = erysipelas and psoriasis, after therapy (200 mg injection daily, then 100 mg for 5 days)

## Nn1[nH]c(=O)c2ccccc2c1=O.O.O.[Na] [2-amino, 2-amino-1,2,3,4-tetrahydrophthalazine-1,4-dione sodium salt dihydrate]
[1]; after the first course of 20 injections
  size of adenoma: decreased
[1]; after the second course of 15 injections
  size of adenoma: remained without further positive dynamic
[2]
  solubility in water: easily soluble in water
[3]; in vivo
  side effects and allergic reactions: does not cause side effects and allergic reactions
[3]; patients with chronic and other diseases
  effect of longterm treatment: causes tolerance and decreases the efficiency of therapy
Macrophages [4]; inflammatory processes
  effect on macrophages: inactivates macrophages for several hours
Macrophages [4]; patients with impaired cellular immunity, e.g. malignant neoplasms
  effect on macrophages: activates macrophages, interleukins and other acute-phase proteins

## Nc1cccc2c(=O)[nH][nH]c(=O)c12.[Na] [Tamerit, 5-amino-2,3-dihydrophthalazine-1,4-dione sodium salt]
[1]; 10 daily injections of 200 mg after the 2-amino courses
  state of the patient (urination): urination was normalized
[5]; 200 mg injected daily
  time to disappearance of edema and hyperemia of the left forelimb: 4 days
[5]; after 200 mg daily then 100 mg injections for 5 days
  state of the patient: satisfactory state
[5]; [12]
  B-lymphocytes: 25.0%
  ESR: 16.0 mm/h
  Eosinophils: 4.0%
  Erythrocytes: 6.9e+12 L⁻¹
  Hemoglobin: 148 g/L
  Immunoglobulin A: 2.47 g/L
  Immunoglobulin G: 13.7 g/L
  Immunoglobulin M: 2.31 g/L
  Latex phagocytosis: 83.4%
  Leukocytes: 6.2e+09 L⁻¹
  Lymphocytes: 26.3%
  Monocytes: 2.0%
  Neutrophils: Segmented: 65.5%
  Neutrophils: Stab: 5.7%
  T-helpers: 31.2%
  T-lymphocytes: 60.3%
  T-suppressors: 20.1%
  TNF: 24.4
[6]
  ESR: 13.0 mm/h
  Eosinophils: 3.0%
  Erythrocytes: 5e+12 L⁻¹
  Hemoglobin: 147 g/L
  Leukocytes: 5.5e+09 L⁻¹
  Lymphocytes: 23.0%
  Monocytes: 6.0%
  Neutrophils: Segmented: 74.0%
  Neutrophils: Stab: 6.0%
[7]
  B-lymphocytes: 24.5%
  Immunoglobulin A: 2.20 g/L
  Immunoglobulin G: 12.4 g/L
  Immunoglobulin M: 2.21 g/L
  Latex phagocytosis: 76.2%
  T-helpers: 29.5%
  T-lymphocytes: 67.0%
  T-suppressors: 23.5%
  TNF: 22.5
[8]; 10 days after beginning of the therapy
  state of the patient: satisfactory state
[8]; three days after beginning of the therapy
  state of the patient (cough, temperature): cough disappeared, and temperature returned to normal
Macrophages [9]
  effect on T-lymphocytes: initiates specific reactions of T-lymphocytes
Macrophages [9]; e.g. malignant neoplasms, evident by release of TNF, interleukins, other acute-phase proteins
  effect on macrophages: causes activation of macrophages
Macrophages [10]
  contents of TNF and acute-phase proteins: decreasing the contents of TNF and acute-phase proteins
  function of neutrophilic granulocytes: enhances super-oxidizing function and phagocytic activity of neutrophilic granulocytes
[11]
  side effects and allergic reactions: does not cause side effects and allergic reactions

## Nc1cccc2c(=O)[nH][nH]c(=O)c12 [luminol, 5-amino-2,3-dihydrophthalazine-1,4-dione]
[3]; in vivo
  medical effectiveness: medically ineffective
